Patent publication US20050113283A1, “Methods of treating conditions associated with an EDG-4 receptor” (priority 2002, published 2005)

Key:
[1] = target: T1, Edg-1 (Homo sapiens, UniProt P21453); experiment: Calcium mobilization assay (FLIPR), HTC cells expressing Edg 1; assay type: cell-based; details: agonist
T1 construct: expressed in transfected cells; host or cells: HTC rat hepatoma cells (from the earlier reading)

[2] = target: T2, Edg-2 (Homo sapiens, UniProt Q92633); experiment: Calcium mobilization assay (FLIPR), HTC cells expressing Edg 2; assay type: cell-based; details: agonist
T2 construct: expressed in transfected cells; host or cells: HTC rat hepatoma cells (from the earlier reading)

[3] = target: T3, Edg-3 (Homo sapiens, UniProt Q99500); experiment: Calcium mobilization assay (FLIPR), HTC cells expressing Edg 3; assay type: cell-based; details: agonist
T3 construct: expressed in transfected cells; host or cells: HTC rat hepatoma cells (from the earlier reading)

[4] = target: T4, human Edg-4 receptor (Homo sapiens, UniProt Q9HBW0); experiment: Calcium mobilization assay (FLIPR), HTC rat hepatoma cells transfected with human Edg-4; assay type: cell-based
T4 construct: IC50 Edg-4; other: agonist, calcium mobilization; potency relative to compound 101; calcium response (agonist)
Text: (§1) LPA receptors such as Edg-4, couple to calcium effector pathways, and result in increases in intracellular calcium following receptor activation (An et al., Molecular Pharmacology, 54:881-888, 1998, incorporated herein by reference). This biological response lends itself to a very efficient, high-throughput screen using a Fluorescence Imaging Plate Reader (FLIPR; Molecular Devices, Sunnyvale, Calif.). The FLIPR system is a real-time, cell-based assay system with continuous fluorescence detection using a cooled CCD camera. The FLIPR system was used to developing an Edg-4 receptor screen. Rat hepatoma cells stably expressing Edg-4 receptor were plated on 384-well plates and loaded with a calcium dye loading kit (Molecular Devices, Sunnyvale, Calif.) for 1 hour at room temperature. Cells were then placed on the FLIPR^354 (Molecular Devices, Sunnyvale, Calif.) and excited by an argon laser at 488 nm. The data for the entire 384-well plate was updated every second. An integrated robotic pipettor allowed for simultaneous compound addition into each individual well in the plate.

[5] = system: human Edg-4 receptor; experiment: as above; assay type: cell-based; details: agonists; Edg-4 relative to other Edg receptors
Text: as §1

[6] = target: T5, Edg-5 (Homo sapiens, UniProt O95136); experiment: Calcium mobilization assay (FLIPR), HTC cells expressing Edg 5; assay type: cell-based; details: agonist
T5 construct: expressed in transfected cells; host or cells: HTC rat hepatoma cells (from the earlier reading)

[7] = target: T6, Edg-6 (Homo sapiens, UniProt O95977); experiment: Calcium mobilization assay (FLIPR), HTC cells expressing Edg 6; assay type: cell-based; details: agonist
T6 construct: expressed in transfected cells; host or cells: HTC rat hepatoma cells (from the earlier reading)
T6 sequence (O95977 1-384): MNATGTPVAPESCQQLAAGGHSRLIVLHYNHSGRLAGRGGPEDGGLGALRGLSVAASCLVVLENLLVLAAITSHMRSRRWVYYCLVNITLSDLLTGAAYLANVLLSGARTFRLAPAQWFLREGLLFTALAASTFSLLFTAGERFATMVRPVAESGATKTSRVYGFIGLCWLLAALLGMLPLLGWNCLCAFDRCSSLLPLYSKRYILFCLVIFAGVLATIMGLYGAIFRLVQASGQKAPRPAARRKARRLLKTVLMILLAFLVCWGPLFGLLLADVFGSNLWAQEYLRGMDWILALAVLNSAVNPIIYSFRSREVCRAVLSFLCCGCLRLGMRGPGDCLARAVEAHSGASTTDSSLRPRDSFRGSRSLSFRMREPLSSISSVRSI

[8] = target: T7, Edg-7 (Homo sapiens, UniProt Q9UBY5); experiment: Calcium mobilization assay (FLIPR), HTC cells expressing Edg 7; assay type: cell-based
T7 construct: expressed in transfected cells; host or cells: HTC rat hepatoma cells (from the earlier reading)
T7 sequence (Q9UBY5 1-353): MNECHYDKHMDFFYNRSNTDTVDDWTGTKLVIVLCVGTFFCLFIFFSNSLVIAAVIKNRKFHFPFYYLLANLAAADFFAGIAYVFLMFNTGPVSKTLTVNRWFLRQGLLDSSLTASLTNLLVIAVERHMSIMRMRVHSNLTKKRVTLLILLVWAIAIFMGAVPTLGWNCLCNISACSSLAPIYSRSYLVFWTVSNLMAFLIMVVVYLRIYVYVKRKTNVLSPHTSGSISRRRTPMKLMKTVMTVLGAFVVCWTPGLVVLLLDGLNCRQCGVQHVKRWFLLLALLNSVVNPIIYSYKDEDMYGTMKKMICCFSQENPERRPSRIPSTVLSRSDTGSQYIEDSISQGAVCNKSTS

[9] = target: T8, Edg-8 (Homo sapiens, UniProt Q9H228); experiment: Calcium mobilization assay (FLIPR), HTC cells expressing Edg 8; assay type: cell-based; details: agonist
T8 construct: expressed in transfected cells; host or cells: HTC rat hepatoma cells (from the earlier reading)

[10] = Calcium mobilization assay, Null; assay type: cell-based; details: agonist
Text: as §1

[11] = system: CaOV3 human ovarian cancer cells; experiment: Calcium response in CaOV3 cells; assay type: cell-based; details: CaOV3, naturally express human Edg-4, FIG. 16
[12] = system: human ovarian tumor growth within the chamber; experiment: In vivo Z-chamber study; design: species or system rat; details: rats, 5 mg/kg every other day, harvested day 16, FIG. 14
Procedure: The Z-chamber assay is a fibrin-based in vivo assay, wherein fibrin and thrombin are added through a port in a two-sided chamber sealed by a nylon mesh. The chamber is implanted in the subcutaneous space of an animal and harvested for evaluation. Fibrin matrices are formed in normal wound healing and are used by tumors to sustain growth, thus Z-chambers are designed to study, for example, angiogenesis, wound healing, and tumor growth. In addition, their design is useful, for example, in studies of localized gene expression, stem cell, adenoviral, and tissue generation.
The efficacy of 101 in an in vivo tumor model was examined by Z-chamber® (SRI, Menlo Park, Calif.) study. Each tumor chamber consisted of 150-160 μl cell suspension made by suspending 190 million cells in 20 ml fibrin (4 mg/ml). Following the introduction of cell suspension, 2 units of thrombin was added into each chamber and the mixture was allowed to gel for 5-7 minutes before implantation.
Rats were anesthetized with Nembutal (35 mg/kg). The skin of rats was surgically prepared with 70% alcohol. […]
101 was dissolved in a 1 to 1 cremophor:ethanol solution and diluted 4 times with 5% dextrose on water. […] The tumor thickness was measured and compared to a negative control, i.e., chambers with no treatment, and the positive treatment. […]

T4 sequence (Q9HBW0 1-340 limits assumed): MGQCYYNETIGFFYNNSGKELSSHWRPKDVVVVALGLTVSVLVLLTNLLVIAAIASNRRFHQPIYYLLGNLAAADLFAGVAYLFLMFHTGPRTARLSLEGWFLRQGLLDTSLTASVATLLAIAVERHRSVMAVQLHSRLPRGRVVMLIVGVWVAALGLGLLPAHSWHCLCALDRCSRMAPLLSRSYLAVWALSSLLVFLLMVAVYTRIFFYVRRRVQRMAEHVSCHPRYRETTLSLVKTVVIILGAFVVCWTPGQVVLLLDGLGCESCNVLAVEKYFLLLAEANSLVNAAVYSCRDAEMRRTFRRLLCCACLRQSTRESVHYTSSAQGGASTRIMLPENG
T3 sequence (Q99500 whole entry): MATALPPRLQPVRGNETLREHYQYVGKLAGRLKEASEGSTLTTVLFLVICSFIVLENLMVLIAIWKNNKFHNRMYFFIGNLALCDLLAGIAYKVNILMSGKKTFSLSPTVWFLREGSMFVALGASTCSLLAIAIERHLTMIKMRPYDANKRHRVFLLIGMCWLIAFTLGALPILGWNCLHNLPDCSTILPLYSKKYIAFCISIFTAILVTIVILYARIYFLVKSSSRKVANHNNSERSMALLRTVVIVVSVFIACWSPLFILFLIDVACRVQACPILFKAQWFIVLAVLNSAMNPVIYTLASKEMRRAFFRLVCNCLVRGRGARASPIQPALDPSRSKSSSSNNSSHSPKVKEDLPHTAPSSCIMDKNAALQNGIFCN
T2 sequence (Q92633 whole entry): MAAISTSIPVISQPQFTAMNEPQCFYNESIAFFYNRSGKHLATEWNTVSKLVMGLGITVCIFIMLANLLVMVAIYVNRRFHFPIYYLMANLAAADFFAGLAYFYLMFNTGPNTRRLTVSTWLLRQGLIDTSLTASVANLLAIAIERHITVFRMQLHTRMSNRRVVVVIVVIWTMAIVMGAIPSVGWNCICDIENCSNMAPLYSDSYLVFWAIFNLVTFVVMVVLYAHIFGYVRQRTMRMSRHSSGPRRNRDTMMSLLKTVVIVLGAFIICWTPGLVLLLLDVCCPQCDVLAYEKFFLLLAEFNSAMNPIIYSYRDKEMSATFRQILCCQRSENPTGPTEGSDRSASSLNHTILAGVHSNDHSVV
T1 sequence (P21453 whole entry): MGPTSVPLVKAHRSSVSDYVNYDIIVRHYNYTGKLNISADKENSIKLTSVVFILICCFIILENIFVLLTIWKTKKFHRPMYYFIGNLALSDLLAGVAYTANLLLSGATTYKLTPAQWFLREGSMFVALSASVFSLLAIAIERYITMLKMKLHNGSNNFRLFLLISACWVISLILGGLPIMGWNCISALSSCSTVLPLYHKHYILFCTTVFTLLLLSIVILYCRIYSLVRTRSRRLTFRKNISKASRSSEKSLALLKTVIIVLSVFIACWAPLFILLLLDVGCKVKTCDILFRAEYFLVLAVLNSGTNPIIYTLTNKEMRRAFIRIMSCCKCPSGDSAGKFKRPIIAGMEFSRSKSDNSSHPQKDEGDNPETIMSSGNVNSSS
T8 sequence (Q9H228 whole entry): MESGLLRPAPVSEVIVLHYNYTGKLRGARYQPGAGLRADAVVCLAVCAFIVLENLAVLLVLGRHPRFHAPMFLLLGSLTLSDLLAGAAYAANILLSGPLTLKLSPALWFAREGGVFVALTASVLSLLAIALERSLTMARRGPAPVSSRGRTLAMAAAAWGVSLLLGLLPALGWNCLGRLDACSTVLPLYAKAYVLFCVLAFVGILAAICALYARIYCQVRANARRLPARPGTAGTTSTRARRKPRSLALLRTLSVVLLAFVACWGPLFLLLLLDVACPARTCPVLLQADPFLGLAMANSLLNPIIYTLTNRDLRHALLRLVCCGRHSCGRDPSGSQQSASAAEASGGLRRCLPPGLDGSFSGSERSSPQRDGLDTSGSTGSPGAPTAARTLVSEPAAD
T5 sequence (O95136 whole entry): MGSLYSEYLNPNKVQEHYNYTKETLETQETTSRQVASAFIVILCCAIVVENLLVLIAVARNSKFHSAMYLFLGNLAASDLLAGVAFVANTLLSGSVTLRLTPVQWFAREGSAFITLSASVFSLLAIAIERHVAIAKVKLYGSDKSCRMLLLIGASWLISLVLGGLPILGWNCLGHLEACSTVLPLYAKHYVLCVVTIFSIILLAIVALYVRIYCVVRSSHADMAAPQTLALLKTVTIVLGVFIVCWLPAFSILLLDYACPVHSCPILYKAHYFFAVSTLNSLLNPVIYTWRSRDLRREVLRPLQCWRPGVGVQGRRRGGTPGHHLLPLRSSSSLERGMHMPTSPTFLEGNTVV

SMILES | EC50 [1] [µM] | EC50 [2] [µM] | EC50 [3] [µM] | calcium response (agonist) ([4]; HTC cells transfected with human Edg-4, FIG. 15) | EC50 ([4]; agonist, calcium mobilization) [µM] | Fold Selectivity for Edg-4 (EC50) [5] | EC50 [6] [µM] | EC50 [7] [µM] | agonist activity at the Edg-7 receptor [8] | EC50 ([8]; agonist, calcium mobilization) [µM] | EC50 [9] [µM] | EC50 [10] [µM] | calcium response elicited by 125, inhibited by antagonist 103 [11] | inhibition of tumor growth (positive control) [12]
COc1cc2c(cc1OC)C(c1c(Cl)cccc1Cl)NC(=O)C2 (centres unmarked) [Compound 125, 1-(2,6-dichlorophenyl)-6,7-dimethoxy-1,4-dihydro-2H-isoguinolin-3-one] | > 25 | > 25 | > 25 | elicits a calcium response | 5.2 | >4.8 | > 25 | > 25 | acts as an agonist | 2.5 | > 25 | > 25 | specificity is also observed | 
CC(=O)O[C@H]1C(=O)[C@@]2(C)[C@H]([C@H](OC(=O)c3ccccc3)[C@]3(O)C[C@H](OC(=O)[C@H](O)[C@@H](NC(=O)c4ccccc4)c4ccccc4)C(C)=C1C3(C)C)[C@]1(OC(C)=O)CO[C@@H]1C[C@@H]2O [Taxol] |  |  |  |  |  |  |  |  |  |  |  |  |  | inhibition of tumor growth
